Structures are written as SMILES. pEC50, pIC50: −log10 of the molar value.

Consider 28 compounds from ChEMBL document CHEMBL1268847, “Discovery of orally bioavailable imidazo[1,2-a]pyrazine-based Aurora kinase inhibitors” (Bioorg Med Chem Lett, 2010).

One data set deals with T1, Aurora kinase A (Homo sapiens, UniProt O14965).
T1 sequence (O14965 whole entry): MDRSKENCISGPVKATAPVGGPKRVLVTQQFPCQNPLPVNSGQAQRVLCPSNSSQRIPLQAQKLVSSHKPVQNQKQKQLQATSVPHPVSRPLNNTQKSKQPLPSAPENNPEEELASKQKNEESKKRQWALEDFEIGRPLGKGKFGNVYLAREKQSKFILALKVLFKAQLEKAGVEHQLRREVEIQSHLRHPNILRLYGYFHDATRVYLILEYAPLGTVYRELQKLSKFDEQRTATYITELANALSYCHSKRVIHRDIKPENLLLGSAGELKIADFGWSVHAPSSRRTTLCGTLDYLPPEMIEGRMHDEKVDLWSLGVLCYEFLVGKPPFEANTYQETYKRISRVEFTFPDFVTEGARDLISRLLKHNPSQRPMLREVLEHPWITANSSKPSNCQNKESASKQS
The data set can be described thus: Inhibition of Aurora A.

Data set [1] can be described thus: AUC (0-6 hrs) in rat at 10 mg/kg, po. The format is ADME, organism-based. The arrangement: time < 6 hr, dose 10 mg/kg, route oral. Conditions: plasma.
Data set [2] is described as follows: Inhibition of Aurora kinase assessed as reduction histone H3 Ser10 phosphorylation by cell based assay.
Another data set addresses Aurora kinase B (Homo sapiens, UniProt Q96GD4). The data set can be described thus: Inhibition of Aurora B.
Data set [3] deals with Tyrosine-protein kinase Lck (Homo sapiens, UniProt P06239). The data set can be described thus: Inhibition of LCK.
Sequence of Tyrosine-protein kinase Lck (P06239 whole entry): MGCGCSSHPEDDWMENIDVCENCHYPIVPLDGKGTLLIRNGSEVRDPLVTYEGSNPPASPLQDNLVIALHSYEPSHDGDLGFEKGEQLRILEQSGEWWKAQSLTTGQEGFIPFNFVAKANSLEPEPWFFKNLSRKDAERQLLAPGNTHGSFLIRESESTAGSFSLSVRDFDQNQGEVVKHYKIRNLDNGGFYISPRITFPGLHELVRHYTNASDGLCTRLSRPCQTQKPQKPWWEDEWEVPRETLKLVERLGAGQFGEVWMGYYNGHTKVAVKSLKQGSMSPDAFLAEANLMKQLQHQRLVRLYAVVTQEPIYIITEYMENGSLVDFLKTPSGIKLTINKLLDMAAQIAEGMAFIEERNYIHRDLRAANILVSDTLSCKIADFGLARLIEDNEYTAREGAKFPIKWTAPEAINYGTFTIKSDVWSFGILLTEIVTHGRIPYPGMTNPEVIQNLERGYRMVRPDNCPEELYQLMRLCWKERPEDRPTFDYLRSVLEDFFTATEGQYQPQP
Data set [4] concerns the target T2, Interleukin-1 receptor-associated kinase 4 (Homo sapiens, UniProt Q9NWZ3).
T2 sequence (Q9NWZ3 whole entry): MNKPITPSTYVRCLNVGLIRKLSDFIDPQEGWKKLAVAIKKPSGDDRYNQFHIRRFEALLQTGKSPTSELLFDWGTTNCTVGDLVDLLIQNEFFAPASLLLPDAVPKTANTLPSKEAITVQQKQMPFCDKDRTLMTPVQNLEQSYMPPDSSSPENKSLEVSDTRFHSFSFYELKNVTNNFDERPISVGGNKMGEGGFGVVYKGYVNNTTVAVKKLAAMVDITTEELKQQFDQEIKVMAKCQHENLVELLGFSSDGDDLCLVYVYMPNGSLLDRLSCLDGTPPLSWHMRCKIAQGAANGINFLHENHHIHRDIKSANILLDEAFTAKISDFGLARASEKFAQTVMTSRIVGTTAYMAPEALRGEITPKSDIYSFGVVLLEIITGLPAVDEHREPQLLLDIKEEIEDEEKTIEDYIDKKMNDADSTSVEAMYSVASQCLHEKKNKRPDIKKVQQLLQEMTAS
Description: Inhibition of IRK4.

The target of data set [5] is Vascular endothelial growth factor receptor 2 (Homo sapiens, UniProt P35968). The data set can be described thus: Inhibition of VEGFR2.
Sequence of Vascular endothelial growth factor receptor 2 (P35968 whole entry): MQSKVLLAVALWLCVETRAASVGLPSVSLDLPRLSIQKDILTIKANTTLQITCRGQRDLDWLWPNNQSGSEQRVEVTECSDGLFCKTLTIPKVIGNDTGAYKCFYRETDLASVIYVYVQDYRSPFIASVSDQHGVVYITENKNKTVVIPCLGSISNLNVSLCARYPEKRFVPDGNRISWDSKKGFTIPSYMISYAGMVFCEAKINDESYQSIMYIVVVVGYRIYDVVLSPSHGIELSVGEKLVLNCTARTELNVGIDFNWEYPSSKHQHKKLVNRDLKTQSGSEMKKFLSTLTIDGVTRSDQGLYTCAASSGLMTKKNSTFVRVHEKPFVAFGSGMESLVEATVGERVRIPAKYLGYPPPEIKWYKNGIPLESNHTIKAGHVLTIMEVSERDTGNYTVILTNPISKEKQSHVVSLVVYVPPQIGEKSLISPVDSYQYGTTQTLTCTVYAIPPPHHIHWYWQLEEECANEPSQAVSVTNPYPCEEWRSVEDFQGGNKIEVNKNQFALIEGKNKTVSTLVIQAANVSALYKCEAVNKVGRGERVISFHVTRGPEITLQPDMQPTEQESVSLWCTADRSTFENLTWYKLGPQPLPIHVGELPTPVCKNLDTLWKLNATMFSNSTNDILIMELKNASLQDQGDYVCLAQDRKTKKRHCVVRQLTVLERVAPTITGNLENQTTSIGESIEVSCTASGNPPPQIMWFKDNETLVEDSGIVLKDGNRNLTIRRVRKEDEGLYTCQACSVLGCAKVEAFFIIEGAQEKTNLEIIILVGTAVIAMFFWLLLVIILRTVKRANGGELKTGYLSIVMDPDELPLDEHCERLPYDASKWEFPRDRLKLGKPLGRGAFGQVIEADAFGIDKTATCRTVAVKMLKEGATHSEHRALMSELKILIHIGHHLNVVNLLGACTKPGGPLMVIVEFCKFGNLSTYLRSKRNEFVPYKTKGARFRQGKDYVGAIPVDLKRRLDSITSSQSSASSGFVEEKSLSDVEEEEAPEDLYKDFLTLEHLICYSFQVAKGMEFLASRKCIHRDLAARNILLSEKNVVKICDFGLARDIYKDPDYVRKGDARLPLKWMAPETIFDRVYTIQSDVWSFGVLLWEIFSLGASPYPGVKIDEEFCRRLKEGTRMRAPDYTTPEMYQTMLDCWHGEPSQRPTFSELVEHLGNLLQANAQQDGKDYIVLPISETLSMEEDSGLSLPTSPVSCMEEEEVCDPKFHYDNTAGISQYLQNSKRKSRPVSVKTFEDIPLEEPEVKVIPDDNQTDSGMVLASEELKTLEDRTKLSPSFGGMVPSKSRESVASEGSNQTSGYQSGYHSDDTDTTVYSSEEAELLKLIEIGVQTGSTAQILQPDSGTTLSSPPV
For data set [6], the target named is T3, Serine/threonine-protein kinase Chk1 (Homo sapiens, UniProt O14757).
T3 sequence (O14757 whole entry): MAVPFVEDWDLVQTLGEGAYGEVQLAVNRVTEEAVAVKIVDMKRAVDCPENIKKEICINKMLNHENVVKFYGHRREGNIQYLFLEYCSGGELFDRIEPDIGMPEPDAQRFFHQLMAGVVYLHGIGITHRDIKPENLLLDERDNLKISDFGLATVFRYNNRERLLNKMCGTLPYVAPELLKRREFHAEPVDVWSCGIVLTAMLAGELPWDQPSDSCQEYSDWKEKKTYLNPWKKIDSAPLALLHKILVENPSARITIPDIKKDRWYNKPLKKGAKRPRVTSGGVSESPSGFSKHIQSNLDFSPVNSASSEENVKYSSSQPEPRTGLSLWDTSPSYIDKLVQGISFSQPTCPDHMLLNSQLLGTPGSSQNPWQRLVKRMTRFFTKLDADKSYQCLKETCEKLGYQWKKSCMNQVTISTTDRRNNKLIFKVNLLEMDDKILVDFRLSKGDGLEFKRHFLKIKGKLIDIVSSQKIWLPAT
Description: Inhibition of CHK1.

In data set [7] the target is Ribosomal protein S6 kinase alpha-3 (Homo sapiens, UniProt P51812). The data set can be described thus: Inhibition of RSK2.
Sequence of Ribosomal protein S6 kinase alpha-3 (P51812 whole entry): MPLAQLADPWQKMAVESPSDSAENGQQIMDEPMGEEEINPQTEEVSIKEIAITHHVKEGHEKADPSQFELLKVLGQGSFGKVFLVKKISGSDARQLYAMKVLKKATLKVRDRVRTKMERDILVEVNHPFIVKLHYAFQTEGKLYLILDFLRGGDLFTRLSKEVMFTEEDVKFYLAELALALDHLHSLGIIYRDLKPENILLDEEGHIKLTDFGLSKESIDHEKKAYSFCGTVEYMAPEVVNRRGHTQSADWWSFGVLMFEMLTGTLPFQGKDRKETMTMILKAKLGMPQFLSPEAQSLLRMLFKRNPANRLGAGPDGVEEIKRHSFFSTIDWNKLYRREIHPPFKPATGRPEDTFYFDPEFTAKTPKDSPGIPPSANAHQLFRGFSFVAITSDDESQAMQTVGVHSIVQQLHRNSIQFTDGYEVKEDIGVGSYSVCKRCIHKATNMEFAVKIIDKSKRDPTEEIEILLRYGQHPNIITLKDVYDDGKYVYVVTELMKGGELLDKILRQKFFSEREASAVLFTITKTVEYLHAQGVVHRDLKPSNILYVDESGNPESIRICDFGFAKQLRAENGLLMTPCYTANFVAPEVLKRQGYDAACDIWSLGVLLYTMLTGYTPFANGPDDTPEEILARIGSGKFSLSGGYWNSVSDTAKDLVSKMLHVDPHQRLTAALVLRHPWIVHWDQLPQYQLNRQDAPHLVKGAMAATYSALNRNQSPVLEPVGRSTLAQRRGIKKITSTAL

Sequence of Aurora kinase B (Q96GD4 whole entry): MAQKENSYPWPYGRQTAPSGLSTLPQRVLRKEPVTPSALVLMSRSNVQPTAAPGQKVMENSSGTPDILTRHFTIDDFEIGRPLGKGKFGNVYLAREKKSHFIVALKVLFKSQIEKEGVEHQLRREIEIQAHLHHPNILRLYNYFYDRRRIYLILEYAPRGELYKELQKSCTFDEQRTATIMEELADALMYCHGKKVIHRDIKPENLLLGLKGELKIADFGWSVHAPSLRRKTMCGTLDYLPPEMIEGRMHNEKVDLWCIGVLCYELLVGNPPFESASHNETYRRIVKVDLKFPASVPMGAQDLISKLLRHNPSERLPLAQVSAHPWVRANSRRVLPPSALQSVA

By pIC50 is commonly meant the IC50 on a negative log10 scale, so that one unit is a factor of ten. Higher therefore signals a low IC50. One may read the AUC(0-t) as the area under the concentration-time curve up to a stated or last time point. The term pEC50 denotes the negative decadic logarithm of the EC50, by convention in mol/L. As to `Cc1cn2c(-c3cn[nH]c3)cnc2c(Nc2cc(C(C)N3CCOCC3)ns2)n1` (racemic), the figures for the pIC50 on Aurora kinase A and against Aurora kinase B were no less than 8.40 and no less than 7.89, respectively. Moreover, the AUC(0-t) at 6 h in data set [1] was 1.1 µM·h. In addition, the pEC50 in [2] was 7.13.

With `Cc1cn2c(-c3cn[nH]c3)cnc2c(Nc2cc(CN3CCOCC3(C)C)ns2)n1`, the values for the pIC50 (on Aurora kinase A; in data set [3]; on Aurora kinase B) were no less than 8.40, 6.42 and no less than 7.89, respectively. This compound displayed an AUC(0-t) at 6 h in data set [1] of 3.3 µM·h. The pEC50 in data set [2] was 6.93.

Turning to `Cc1cn2c(-c3cn[nH]c3)cnc2c(Nc2cc(CN3C[C@H]4CC[C@@H](C3)O4)ns2)n1`, the negative-log IC50 (pIC50) against Aurora kinase A is no less than 8.40; against Aurora kinase B, no less than 7.89. Besides, the AUC(0-t) at 6 h in data set [1] was 0.4 µM·h. Besides, in data set [2], the pEC50 was 6.57.

With `Cc1cn2c(-c3cn[nH]c3)cnc2c(Nc2cc(C(C)N3C[C@@H](C)O[C@@H](C)C3)ns2)n1` (mixture of isomers), the pIC50 on Aurora kinase A was no less than 8.40; against Aurora kinase B, no less than 7.89. Besides, the AUC(0-t) at 6 h in data set [1] came out at 8 µM·h. For the same compound, the pEC50 in data set [2] was 7.26.

With `CCNC(=O)N1CCN(Cc2cc(Nc3nc(C)cn4c(-c5cn[nH]c5)cnc34)sn2)CC1`, the pIC50 at Aurora kinase A is no less than 8.40; at Aurora kinase B, no less than 7.89. For the same compound, the pEC50 in data set [2] was less than 6.00.

Turning to `CCN(Cc1cc(Nc2nc(C)cn3c(-c4cn[nH]c4)cnc23)sn1)C(C)(C)CO`, the pIC50 was no less than 8.40 on Aurora kinase A; 8.10 in [4]; no less than 9.00 in data set [3]; no less than 9.00 in [5]; 7.89 in [6]; no less than 7.89 at Aurora kinase B. This compound had a pIC50 in [7] of 6.74. Besides, the pEC50 in [2] is 7.62.

With `Cc1cn2c(-c3cn[nH]c3)cnc2c(Nc2cc(CN3CCN(S(C)(=O)=O)CC3)ns2)n1`, the pIC50 at Aurora kinase A was no less than 8.40; on Aurora kinase B it was no less than 7.89. In addition, the pEC50 in data set [2] is less than 6.30.

On to `Cc1cn2c(-c3cn[nH]c3)cnc2c(Nc2cc(CN3CCN(C)CC3)ns2)n1`, for which the pIC50 on Aurora kinase A was no less than 8.40; on Aurora kinase B, no less than 7.89. Also, in data set [2], the pEC50 is 6.39.

`Cc1cn2c(-c3cn[nH]c3)cnc2c(Nc2cc(CN3CCN(CCO)CC3)ns2)n1`: the values for the pIC50 at Aurora kinase A and against Aurora kinase B were no less than 8.40 and no less than 7.89, respectively. Also, in data set [2], the pEC50 is less than 6.00.

Regarding `Cc1cn2c(-c3cn[nH]c3)cnc2c(Nc2cc(CN3CCOCC34CCC4)ns2)n1`, the pIC50 against Aurora kinase A was no less than 8.40; on Aurora kinase B, no less than 7.89. The same compound registered an AUC(0-t) at 6 h in data set [1] of 0.4 µM·h. Besides, the pEC50 in data set [2] was 6.71.

With `Cc1cn2c(-c3cn[nH]c3)cnc2c(Nc2cc(CN3CCOC[C@@H]3CO)ns2)n1`, the pIC50 against Aurora kinase A is no less than 8.40; against Aurora kinase B, no less than 7.89. Further, the pEC50 in [2] is less than 6.00.

For `Cc1cn2c(-c3cn[nH]c3)cnc2c(Nc2cc(C3(N4C[C@@H](C)O[C@@H](C)C4)CC3)ns2)n1`, the figures for the pIC50 against Aurora kinase A and at Aurora kinase B were 7.35 and 7.30, respectively. In addition, the AUC(0-t) at 6 h in [1] amounted to 0.3 µM·h. Besides, in [2], the pEC50 was 6.13.

Regarding `CCOCC(c1cc(Nc2nc(C)cn3c(-c4cn[nH]c4)cnc23)sn1)N1CCOCC1` (racemic), the pIC50 against Aurora kinase A is no less than 8.40; against Aurora kinase B, no less than 7.89. The pEC50 in data set [2] is 6.55.

On to `Cc1cn2c(-c3cn[nH]c3)cnc2c(Nc2cc(C(C)N3CCOC(C)(C)C3)ns2)n1` (racemic), for which the pIC50 at Aurora kinase A was no less than 8.40; against Aurora kinase B, no less than 7.89. In addition, the AUC(0-t) at 6 h in data set [1] came out at 1.3 µM·h. Besides, the pEC50 in data set [2] is 7.15.

Regarding `Cc1cn2c(-c3cn[nH]c3)cnc2c(Nc2cc(C(c3ccccn3)N3CCOCC3)ns2)n1` (racemic), the pIC50 is no less than 8.40 against Aurora kinase A and no less than 7.89 against Aurora kinase B. In data set [1], this compound yielded an AUC(0-t) at 6 h of 0.4 µM·h. Further, in data set [2], the pEC50 was 6.98.

Regarding `CCC(c1cc(Nc2nc(C)cn3c(-c4cn[nH]c4)cnc23)sn1)N1CCOCC1` (racemic), the results for the pIC50 on Aurora kinase A and at Aurora kinase B were no less than 8.40 and no less than 7.89, respectively. In data set [1], this compound returned an AUC(0-t) at 6 h of 0.5 µM·h. Moreover, the pEC50 in [2] is 7.31.

As to `CSc1cn2c(-c3cn[nH]c3)cnc2c(Nc2cc(C)ns2)n1`, in [2], the pEC50 was 6.22. On Aurora kinase B, this compound had a pIC50 of no less than 7.89.

In the case of `Cc1cn2c(-c3cn[nH]c3)cnc2c(Nc2cc(CN3CCOC(C)(C)C3)ns2)n1`, the pIC50 at Aurora kinase A is no less than 8.40; against Aurora kinase B, no less than 7.89. In addition, in data set [2], the pEC50 is 6.60.

As to `COCC(c1cc(Nc2nc(C)cn3c(-c4cn[nH]c4)cnc23)sn1)N1CCOCC1` (racemic), the pIC50 was no less than 8.40 against Aurora kinase A and no less than 7.89 on Aurora kinase B. The AUC(0-t) at 6 h in data set [1] worked out at 2.3 µM·h. Further, in data set [2], the pEC50 is 7.08.

On to `Cc1cn2c(-c3cn[nH]c3)cnc2c(Nc2cc(CN3CCCCC3(C)C)ns2)n1`, for which the results for the pIC50 (against Aurora kinase A; in data set [3]; against Aurora kinase B) were no less than 8.40, 7.35 and no less than 7.89, respectively. Moreover, in [1], the AUC(0-t) at 6 h was found to be 0.5 µM·h. Moreover, the pEC50 in [2] was 7.85.

`Cc1cc(Nc2nc(C)cn3c(-c4cn[nH]c4)cnc23)sn1`: the pEC50 in [2] is 6.60. Further, the figures for the pIC50 (in data set [3]; at Aurora kinase B) were 6.25 and no less than 7.89, respectively.

Regarding `CC(=O)N1CCN(Cc2cc(Nc3nc(C)cn4c(-c5cn[nH]c5)cnc34)sn2)CC1`, the pIC50 on Aurora kinase A was no less than 8.40; against Aurora kinase B, no less than 7.89. Further, the pEC50 in [2] was less than 6.00.

For the compound `Cc1cn2c(-c3cn[nH]c3)cnc2c(Nc2cc(CN3C[C@H](C)OC[C@@H]3C)ns2)n1`, the results for the pIC50 at Aurora kinase A and at Aurora kinase B were no less than 8.40 and no less than 7.89, respectively. The AUC(0-t) at 6 h in [1] was determined as 3.9 µM·h. For the same compound, the pEC50 in data set [2] is 6.59.

Take `Cc1cn2c(-c3cn[nH]c3)cnc2c(Nc2cc(CN3CCN(C)CC3=O)ns2)n1`: the pIC50 is no less than 8.40 at Aurora kinase A and no less than 7.89 against Aurora kinase B. Moreover, the pEC50 in [2] was less than 6.00.

As for `Cc1cn2c(-c3cn[nH]c3)cnc2c(Nc2cc(CN3C[C@@H](C)O[C@@H](C)C3)ns2)n1`, the pIC50 is no less than 8.40 against Aurora kinase A and no less than 7.89 against Aurora kinase B. In data set [1], this compound had an AUC(0-t) at 6 h of 7.3 µM·h. In addition, the pEC50 in data set [2] was 7.09.

As for `CCOC(=O)N1CCN(Cc2cc(Nc3nc(C)cn4c(-c5cn[nH]c5)cnc34)sn2)CC1`, the pIC50 was no less than 8.40 against Aurora kinase A and no less than 7.89 on Aurora kinase B. This compound returned an AUC(0-t) at 6 h in data set [1] of 0.38 µM·h. The pEC50 in [2] was 6.25.

The compound `Cc1cn2c(-c3cn[nH]c3)cnc2c(Nc2cc([C@H](C)N3C[C@@H](C)O[C@@H](C)C3)ns2)n1` yielded an AUC(0-t) at 6 h in data set [1] of 1.1 µM·h. Also, the pEC50 in data set [2] was 6.66.

Consider `Cc1cn2c(-c3cn[nH]c3)cnc2c(Nc2cc(CN3CCN(C)C(=O)C3)ns2)n1`, for which the pIC50 was no less than 8.40 at Aurora kinase A and no less than 7.89 at Aurora kinase B. Besides, the pEC50 in data set [2] was less than 6.00.
